Test results published in PMC4403932 (Journal of Medicinal Chemistry, 2015).

What was measured:
Type in all cases: binding
[1] = target: T1, BRD4(1) (Homo sapiens, UniProt O60885); test: Protein stability (thermal) shift assay, BRD4(1); conditions: compound 10 μM, protein 2 μM; average of triplicate; read-out: ΔTm Shift, BRD4(1)
T1 construct: made in house
Description: (§1) Thermal melting experiments were carried out using an Mx3005p real time PCR machine (Stratagene). Proteins were buffered in 10 mM HEPES, pH 7.5, 500 mM NaCl and assayed in a 96-well plate at a final concentration of 2 μM in 20 μL volume. Compounds were added at a final concentration of 10 or 100 μM. SYPRO Orange (Molecular Probes) was added as a fluorescence probe at a dilution of 1 in 1000. Excitation and emission filters for the SYPRO-Orange dye were set to 465 and 590 nm, respectively. The temperature was raised with a step of 3 °C per minute from 25 to 96 °C, and fluorescence readings were taken at each interval. The temperature dependence of the fluorescence during the protein denaturation process was approximated by the equation [drawing 1] where ΔuG is the difference in unfolding free energy between the folded and unfolded state, R is the gas constant, and yF and yU are the fluorescence intensity of the probe in the presence of completely folded and unfolded protein, respectively.[65] The baselines of the denatured and native states were approximated by a linear fit. The observed temperature shifts, ΔTm^obs, were recorded as the difference between the transition midpoints of sample and reference wells containing protein without ligand in the same plate and determined by nonlinear least-squares fit. Temperature shifts (ΔTm^obs) for three independent measurements per proteins/compound are summarized in Supporting Information Table S1.

[2] = target: T2, BRD3(2) (Homo sapiens, UniProt Q15059); test: Protein stability (thermal) shift assay, BRD3(2); conditions: compound 10 μM, protein 2 μM; average of triplicate
T2 construct: made in house
Description: as §1

[3] = target: T3, BRD2(1) (Homo sapiens, UniProt P25440); test: Protein stability (thermal) shift assay, BRD2(1); conditions: compound 10 μM, protein 2 μM; average of triplicate
T3 construct: Fragments were tested in a thermal shift assay against bromodomains of the BET subfamily; made in house
Description: as §1

[4] = target: T4, PB1(5) (Homo sapiens, UniProt Q86U86); test: Protein stability (thermal) shift assay, PB1(5); conditions: compound 10 μM, protein 2 μM; average of triplicate
T4 construct: made in house
Description: as §1

[5] = target: T5, BRDT(2) (Homo sapiens, UniProt Q58F21); test: Protein stability (thermal) shift assay, BRDT(2); conditions: compound 10 μM, protein 2 μM; average of triplicate; read-out: ΔTm Shift, BRDT(2)
T5 construct: made in house
Description: as §1

[6] = target: T6, PCAF (Homo sapiens, UniProt Q92831); test: Protein stability (thermal) shift assay, PCAF; conditions: compound 10 μM, protein 2 μM; average of triplicate
T6 construct: representative BRDs from other structural subfamilies (family I, PCAF); made in house
T6 sequence (Q92831 723-827 limits assumed): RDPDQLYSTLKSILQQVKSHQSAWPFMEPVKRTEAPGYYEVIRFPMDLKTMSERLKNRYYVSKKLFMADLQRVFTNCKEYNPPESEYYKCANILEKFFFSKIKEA
Description: as §1

[7] = target: T7, BRD3(1) (Homo sapiens, UniProt Q15059); test: Protein stability (thermal) shift assay, BRD3(1); conditions: compound 10 μM, protein 2 μM; average of triplicate
T7 construct: Fragments were tested in a thermal shift assay against bromodomains of the BET subfamily; made in house
Description: as §1

[8] = target: T8, BRD4(2) (Homo sapiens, UniProt O60885); test: Protein stability (thermal) shift assay, BRD4(2); conditions: compound 10 μM, protein 2 μM; average of triplicate
T8 construct: made in house
Description: as §1

[9] = target: T9, BAZ2B (Homo sapiens, UniProt Q9UIF8); test: Protein stability (thermal) shift assay, BAZ2B; conditions: compound 10 μM, protein 2 μM; average of triplicate; read-out: ΔTm Shift, BAZ2BA
T9 construct: representative BRDs from other structural subfamilies (family I, PCAF); family III, CREBBP; family IV, BRD9; family V, BAZ2B; made in house
T9 sequence (Q9UIF8 2060-2164 limits assumed): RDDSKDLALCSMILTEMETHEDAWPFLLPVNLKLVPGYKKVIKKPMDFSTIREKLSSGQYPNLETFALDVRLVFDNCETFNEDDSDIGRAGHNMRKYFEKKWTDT
Description: as §1

[10] = target: T10, CREBBP (Homo sapiens, UniProt Q92793); test: Protein stability (thermal) shift assay, CREBBP; conditions: compound 10 μM, protein 2 μM; average of triplicate; read-out: ΔTm Shift, CREBBP
T10 construct: small thermal shits (1.0–1.3 °C) for the bromodomain of CREBBP; made in house
Description: as §1

[11] = target: T11, BRDT(1) (Homo sapiens, UniProt Q58F21); test: Protein stability (thermal) shift assay, BRDT(1); conditions: compound 10 μM, protein 2 μM; average of triplicate
T11 construct: made in house
Description: as §1

[12] = target: T12, BRD2(2) (Homo sapiens, UniProt P25440); test: Protein stability (thermal) shift assay, BRD2(2); conditions: compound 10 μM, protein 2 μM; average of triplicate
T12 construct: made in house
Description: as §1

[13] = target: T13, BRD9 (Homo sapiens, UniProt Q9H8M2); test: Protein stability (thermal) shift assay, BRD9; conditions: compound 10 μM, protein 2 μM; average of triplicate; read-out: ΔTm Shift, BRD9
T13 construct: made in house
T13 sequence (Q9H8M2 136-240 limits assumed): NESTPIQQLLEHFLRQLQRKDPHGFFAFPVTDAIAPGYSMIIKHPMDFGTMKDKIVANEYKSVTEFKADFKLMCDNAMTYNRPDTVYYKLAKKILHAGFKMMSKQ
Description: as §1

T3 sequence (P25440 74-180 limits assumed): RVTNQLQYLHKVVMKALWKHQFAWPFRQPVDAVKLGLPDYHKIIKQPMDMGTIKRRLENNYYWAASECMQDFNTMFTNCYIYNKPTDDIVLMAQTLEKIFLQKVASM
T7 sequence (Q15059 34-140 limits assumed): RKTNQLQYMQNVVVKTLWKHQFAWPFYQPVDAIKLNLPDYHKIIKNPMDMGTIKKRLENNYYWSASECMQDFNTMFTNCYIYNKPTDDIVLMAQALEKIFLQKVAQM
T12 sequence (P25440 344-453 limits assumed): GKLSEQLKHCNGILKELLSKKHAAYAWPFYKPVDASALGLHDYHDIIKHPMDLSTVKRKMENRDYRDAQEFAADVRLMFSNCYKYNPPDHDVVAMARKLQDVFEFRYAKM
T2 sequence (Q15059 306-415 limits assumed): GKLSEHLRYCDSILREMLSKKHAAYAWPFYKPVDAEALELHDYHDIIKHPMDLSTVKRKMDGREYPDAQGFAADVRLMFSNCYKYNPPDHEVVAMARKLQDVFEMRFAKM
T4 sequence (Q86U86 653-763 limits assumed): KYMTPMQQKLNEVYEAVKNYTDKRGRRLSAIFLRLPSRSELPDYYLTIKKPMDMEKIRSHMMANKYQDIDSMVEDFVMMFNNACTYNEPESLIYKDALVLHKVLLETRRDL
T10 sequence (Q92793 1085-1192 limits assumed): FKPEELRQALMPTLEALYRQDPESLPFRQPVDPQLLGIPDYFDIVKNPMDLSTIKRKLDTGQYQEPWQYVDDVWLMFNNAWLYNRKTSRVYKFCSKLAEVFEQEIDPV

Structure (SMILES) | ΔTm at 10 µM [1] [°C] | ΔTm at 10 µM [2] [°C] | ΔTm at 10 µM [3] [°C] | ΔTm at 10 µM [4] [°C] | ΔTm at 10 µM [5] [°C] | ΔTm at 10 µM [6] [°C] | ΔTm at 10 µM [7] [°C] | ΔTm at 10 µM [8] [°C] | ΔTm at 10 µM [9] [°C] | ΔTm at 10 µM [10] [°C] | ΔTm at 10 µM [11] [°C] | ΔTm at 10 µM [12] [°C] | ΔTm at 10 µM [13] [°C]
Clc1nc(Cl)c2nc[nH]c2n1 [Compound 1, 2,6-dichloro-9H-purine] | 1.6 | -0.159 | 0.361 | 1.4 | -0.234 | -0.8 | 0.7 | 0.5 | -0.1 | 1.6 | -0.8 | -0.374 | –
COc1ccc(-c2nc(N)nc3[nH]cnc23)cc1 [Compound 3b, 2-Amino-6-(4-methoxyphenyl)-9H-purine] | 0.223 | 0.4 | -0.253 | -0.08 | -0.167 | 0.0867 | -0.06 | 0.0133 | 0.00333 | 0.663 | -0.133 | 0.337 | 0
Nc1nc(-c2ccc(Oc3ccccc3)cc2)c2nc[nH]c2n1 [Compound 3d, 2-Amino-6-(4-phenoxyphenyl)-9H-purine] | 0.533 | 0.7 | -0.0833 | 0.0567 | 0.3 | 0.2 | -0.127 | 0.5 | 0.273 | 0.6 | 0.253 | 0.5 | 0.847
Nc1nc(-c2ccc(COc3cccc(C(F)(F)F)c3)cc2)c2nc[nH]c2n1 [Compound 3g, 2-Amino-6-(4-(3′-(trifluoromethyl)phenoxymethyl)phenyl)-9H-purine] | -0.18 | 0.215 | -0.5 | 0.339 | 0.271 | 0.1 | -0.125 | -7.9 | -1 | 0.363 | -0.322 | 0.459 | -0.9
COCCc1ccc(OCc2ccc(-c3nc(N)nc4[nH]cnc34)cc2)cc1 [Compound 3h, 2-Amino-6-(4-((4′-(2-methoxyethyl)phenoxy)methyl)phenyl)-9H-purine] | 0.6 | 2 | 0.354 | 0.5 | 0.7 | -0.2 | 0.5 | -2.8 | -0.127 | 1 | 0.528 | 1.2 | -0.532
Nc1nc(-c2ccc(OCc3ccccc3)c(Cl)c2)c2nc[nH]c2n1 [Compound 4a, 2-Amino-6-(4-benzyloxy-3-chlorophenyl)-9H-purine] | -0.15 | -0.092 | -0.5 | 0.536 | 0.224 | -0.2 | -0.252 | -2.6 | -0.367 | 0.9 | -0.0553 | -0.5 | -1.7
COc1cc(COc2ccc(-c3nc(N)nc4[nH]cnc34)cc2Cl)cc(OC)c1 [Compound 4b, 2-Amino-6-(3-chloro-4-(3′,5′-dimethoxybenzyloxy)phenyl)-9H-purine] | 0.54 | -0.379 | -0.113 | 0.7 | 0.7 | 1.6 | 0.445 | -2.9 | 2.3 | -0.04 | 0.658 | 0.159 | -2
Nc1nc(-c2ccc3c(c2)OCCO3)c2nc[nH]c2n1 [Compound 4c, 2-Amino-6-(2,3-dihydrobenzo[b][1,4]dioxin-6-yl)-9H-purine] | 0.4 | 0.9 | -0.3 | -1.6 | -0.166 | -1.2 | 0.0747 | -1.3 | -0.9 | -1.5 | -0.125 | -0.0273 | 0.8
Nc1nc(-c2cccc(OCc3ccc(Cl)cc3)c2)c2nc[nH]c2n1 [Compound 4d, 2-Amino-6-(3-(4′-chlorobenzyloxy)phenyl)-9H-purine] | 1.5 | 1.2 | 0.643 | 0.553 | 1.2 | 0.7 | 0.7 | 1 | 0.653 | 1.5 | 0.7 | 1.4 | –
CCCCOc1cc(Br)cc(-c2nc(N)nc3[nH]cnc23)c1 [Compound 5a, 2-Amino-6-(3-bromo-5-butoxyphenyl)-9H-purine] | 1.6 | 1.5 | 0.7 | 1.1 | 1.8 | 1.3 | 0.9 | 1.3 | 1.1 | 1.7 | 1 | 1.7 | 1.1
COc1cccc(OC)c1-c1nc(N)nc2[nH]cnc12 [Compound 6a, 2-Amino-6-(2,6-dimethoxyphenyl)-9H-purine] | 0.7 | 1.3 | 0.167 | 0.4 | 0.364 | -0.4 | 0.341 | -1.3 | 0.0167 | 0.34 | -0.122 | 0.4 | -0.1
COc1cccc(OC(C)C)c1-c1nc(N)nc2[nH]cnc12 [Compound 6b, 2-Amino-6-(2-isopropoxy-6-methoxyphenyl)-9H-purine] | 0.6 | 0.6 | -0.459 | 0.216 | 0.447 | -0.261 | 0.651 | -0.845 | -0.3 | -0.1 | 0.165 | -0.3 | -0.162
COc1cccc(OCC(C)C)c1-c1nc(N)nc2[nH]cnc12 [Compound 6c, 2-Amino-6-(2-isobutoxy-6-methoxyphenyl)-9H-purine] | 1 | 1.1 | 0.187 | -0.324 | 0.8 | -0.121 | 1.2 | 0.4 | -0.147 | -0.4 | -0.0153 | 0.6 | -0.0523
